From patent US20260226084A1, “DUAL RAF AND TUBULIN INHIBITORS AND METHODS OF USE THEREOF” (Deciphera Pharmaceuticals, LLC, priority 2023, published 2026)

What was measured:
[1] = molecular target: T1, B-Raf kinase (SEQ ID NO: 1) (Homo sapiens, UniProt P15056); assay: Biochemical Assay for B-Raf (coupled pyruvate kinase/lactate dehydrogenase assay); conditions: Table 5, previously disclosed BRAF/CRAF inhibitors; read-out: BRAF
T1 construct: GST (N); purchased Sigma

[2] = molecular target: T2, C-Raf kinase (SEQ ID NO: 2) (Homo sapiens, UniProt P04049, Y340D/Y341D); assay: Biochemical Assay for C-Raf (coupled pyruvate kinase/lactate dehydrogenase assay); conditions: Table 5, previously disclosed BRAF/CRAF inhibitors; read-out: CRAF
T2 construct: C-Raf residues 306-end; Y340D, Y341D with; GST (N); purchased Sigma

[3] = molecular target: T3, Porcine Brain Tubulin (Sus scrofa, UniProt P02550+P02554); assay: Biochemical Tubulin Polymerization Assay; conditions: Table 5, previously disclosed BRAF/CRAF inhibitors; read-out: Tubulin Biochem
T3 construct: Porcine Brain Tubulin (T240); purchased Cytoskeleton, Inc T240; BK011P; host or cells: porcine brain (tissue-purified)

[4] = system: tubulin polymerization in HCT-116 cells; assay: Cellular Tubulin Polymerization Assay; format: cell-based; conditions: Homo sapiens, Table 5, read-out: Tubulin Cellular
Experimental: HCT-116 cells (catalog #CCL-247) are obtained from the American Type Culture Collect (ATCC, Manassas, VA). Briefly, cells are grown in McCoy's 5A supplemented with 10% characterized fetal bovine serum (Invitrogen, Carlsbad, CA) and 1% Penicillin/Streptomycin/L-Glutamine at 37° C., 5% CO2, and 95% humidity. Cells are expanded until reaching 70-95% confluency at which point they are subcultured or harvested for assay use. 450000 cells are added per well in 1500 μL complete growth medium in a tissue culture treated, 12-well plate. Plates are incubated for 18 to 24 h at 37° C., 5% CO2, and 95% humidity. At the end of the incubation, 2000 μL of base culture media is added to each well, followed by a serial dilution of compound. Plates are incubated for an additional 1 h at 37° C., 5% CO2, and 95% humidity. Lysates are generated by the addition of 100 μL Lysis and Microtubule Stabilization Buffer 1 (LMS01, Cytoskeleton Inc, Denver, CO) supplemented with GTP (BST06, Cytoskeleton Inc), ATP (BSA04, Cytoskeleton Inc), and Protease Inhibitor Cocktail Stock (PIC02, Cytoskeleton Inc). Cells are scraped off wells using a rubber cell scraper and collected in a clean 96-well plate. Lysates are centrifuged at 1000×g, 37° C. for 10 min and supernatant fraction is placed into an additional 96-well plate. The remaining pellet fraction is reconstituted in 100 μL LMS01 buffer and sonicated for 10 min. Pellet and Supernatant fractions are probed for α-tubulin via western blot analysis on the Jess System or equivalent (Bio-techne, Minneapolis, MN). Data is analyzed using Prism software (Graphpad, San Diego, CA) to calculate IC50values.

T1 sequence (P15056 416-766): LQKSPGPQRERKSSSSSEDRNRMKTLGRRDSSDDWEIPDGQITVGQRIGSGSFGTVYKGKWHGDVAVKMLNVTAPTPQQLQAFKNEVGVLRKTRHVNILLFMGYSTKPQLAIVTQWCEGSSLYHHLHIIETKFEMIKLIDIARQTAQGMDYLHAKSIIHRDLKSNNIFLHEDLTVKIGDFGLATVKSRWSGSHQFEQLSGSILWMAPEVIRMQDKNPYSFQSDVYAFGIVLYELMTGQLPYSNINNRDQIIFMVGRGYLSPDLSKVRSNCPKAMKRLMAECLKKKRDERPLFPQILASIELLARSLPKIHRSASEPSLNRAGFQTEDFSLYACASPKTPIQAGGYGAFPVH
T2 sequence (P04049 307-648 Y340D/Y341D): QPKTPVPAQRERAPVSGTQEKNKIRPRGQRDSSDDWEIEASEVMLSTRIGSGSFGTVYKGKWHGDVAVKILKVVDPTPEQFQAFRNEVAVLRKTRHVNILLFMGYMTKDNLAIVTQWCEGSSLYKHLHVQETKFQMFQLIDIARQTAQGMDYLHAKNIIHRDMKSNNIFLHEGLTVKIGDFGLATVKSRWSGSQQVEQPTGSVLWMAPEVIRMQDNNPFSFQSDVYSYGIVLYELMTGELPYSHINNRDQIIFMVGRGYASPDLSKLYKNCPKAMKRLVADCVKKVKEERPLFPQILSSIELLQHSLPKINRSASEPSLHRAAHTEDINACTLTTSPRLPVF
T3 sequence (P02550 whole entry): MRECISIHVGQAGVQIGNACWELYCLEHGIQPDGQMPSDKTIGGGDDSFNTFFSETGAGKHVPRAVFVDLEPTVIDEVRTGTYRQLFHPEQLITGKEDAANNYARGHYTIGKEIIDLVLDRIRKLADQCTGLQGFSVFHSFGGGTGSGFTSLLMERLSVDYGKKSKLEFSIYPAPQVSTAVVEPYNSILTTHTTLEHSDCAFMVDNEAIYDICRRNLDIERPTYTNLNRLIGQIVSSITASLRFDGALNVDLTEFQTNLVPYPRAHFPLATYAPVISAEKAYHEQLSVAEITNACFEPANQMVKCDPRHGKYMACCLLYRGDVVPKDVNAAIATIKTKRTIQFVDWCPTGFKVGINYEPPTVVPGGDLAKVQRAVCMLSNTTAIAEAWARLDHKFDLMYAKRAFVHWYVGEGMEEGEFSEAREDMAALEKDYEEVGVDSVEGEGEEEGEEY
T3 sequence (P02554 whole entry): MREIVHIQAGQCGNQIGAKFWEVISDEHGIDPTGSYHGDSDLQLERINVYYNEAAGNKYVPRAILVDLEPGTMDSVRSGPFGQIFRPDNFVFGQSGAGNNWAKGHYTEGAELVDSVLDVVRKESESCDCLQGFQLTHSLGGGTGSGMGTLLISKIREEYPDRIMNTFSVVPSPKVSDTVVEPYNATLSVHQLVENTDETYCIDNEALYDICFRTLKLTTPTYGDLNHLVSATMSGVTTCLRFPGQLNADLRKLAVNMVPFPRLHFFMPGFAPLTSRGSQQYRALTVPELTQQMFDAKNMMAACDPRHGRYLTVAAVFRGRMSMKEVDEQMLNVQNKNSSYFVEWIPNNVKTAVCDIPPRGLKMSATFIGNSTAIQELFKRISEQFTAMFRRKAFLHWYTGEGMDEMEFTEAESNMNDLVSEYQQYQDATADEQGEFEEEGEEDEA

IC50 [1]: < 100 nM
IC50 [2]: < 100 nM
IC50 [3]: > 100000 nM
IC50 [4]: 1000 to 10000 nM
Structure (SMILES): Cc1ccc2c(Nc3cccc(Cl)c3F)nccc2c1NC(=O)c1csc2c(N)ncnc12 [Belvarafenib, reference compound]
